The text below walks through data of patent US20200246308A1, “SYNERGISTIC COMBINATIONS OF UROLITHINS A AND B FOR IMPROVING COGNITIVE CAPACITY OR COGNITIVE FUNCTION” (Natreon, Inc., priority 2018, published 2020).

The test system of assay [1] is scopolamine induced dementia in rats. In words: Y-maze test, scopolamine induced dementia in rats (Study 2). In kind it is in vivo, Charles Foster male albino rats. The settings on record: Donepezil 5 mg/kg i.p.; shilajit effect at 100 mg/kg. On the procedure: 2.2. Animal subjects. Inbred Charles Foster male albino rats (130-180 g) were obtained from the Central Animal House, Institute of Medical Sciences (IMS), Banaras Hindu University (BHU), Varanasi, Uttar Pradesh, India. These were certified to be pathogen free and were randomly distributed into different experimental groups. The rats were kept in the departmental animal house at an ambient temperature of 25±1° C. and 45-55% RH, with a 12-h light/dark cycle (lights on 7:00-19:00 h). The animals had free access to standard pellet chow and tap water ad libitum. Experiments were conducted between 9:00 and 14:00 h. The behavioral testing was done during the light phase. Animals were housed in groups and acclimatized for at least one week before using them for experiments. Animals were transported in cage covered by dark cloth to the experimental room. The experimental procedures were in compliance with National Institutes of Health Guide for Care and Use of Laboratory Animals.
The rats were pretreated orally for seven days through an orogastric tube with experimental drugs (10, 25 and 50 mg/kg once daily) suspended in 0.3% carboxymethyl cellulose (CMC). The treatment was continued until the end of the experiment procedures (Singh, G. K., Garabadu, D., Muruganadam, A. V., Joshi, V. K., Krishnamurthy, S., “Antidepressant activity of Asparagus racemosus in animal models of depression,” Pharmacol. Biochem. Behav. (2009) 91(3):283-90). Scopolamine was dissolved in water for injection and administered on day 7 after one hour of drug treatment administration. Donepezil (5 mg/kg; i.p.)
was used as standard drug. On day 8 the behavioral experiment was performed. The animals were sacrificed and hippocampus was micro-dissected using the coordinates of the rat brain atlas. All control group animals were treated with the 0.3 ml of vehicle (0.3% CMC suspension) equal to the volume of experimental drugs (Ohj a, R., et al., “Asparagus recemosus enhances memory and protects against amnesia in rodent models,” Brain Cogn. (2010) October; 74(1): 1-9).
Spatial recognition memory, general exploratory behavior, and anxiety-like behavior were assessed by the Y-maze test. Y-maze consists of three similar arms of dimension 50 cm long, 16 cm wide and 32 cm high. In the first trial, the novel arm was blocked and the animal was allowed to move for 15 min in other two arms. In the second trial, the novel arm was opened and the animal was allowed to move for 5 min in all three arms after 4 h of the first trial. The total number of entries in all arms (for 5 min of trial-1 and trial-2) is indicative of general exploration attitude (curiosity). The % entries in known and novel arms for the 5 min period of trial 2 were considered as a measure of spatial recognition memory. Coping strategy to the novel environment was estimated by the percentage of the ratio of time spent in the novel arm to time spent in all arms and in the center of the apparatus during trial 2. The decrease in the coping behavior to the novel environment was considered as an increase in anxiety-like behavior (Krishnamurthy, S., et al., “Risperidone ameliorates post-traumatic stress disorder-like symptoms in modified stress re-stress model,” Neuropharmacology (2013) 75:62-77).

Assay [2] deals with acetylcholine (ACh) level in HIP tissue. The experiment in a line: Acetylcholine level in hippocampal tissue, Amplex Red kit (Example 9D). The format is in vivo, Male Wistar rats. The settings on record: p.o. 7 days: B 50, A 50, Donepezil 3, B:A 10:50 and 50:50, Shilajit 50 mg/kg. On the procedure: Drug solution was freshly prepared in 0.3% CMC and administered by oral gavage once a day, for a period of 7 days. Briefly, the whole experiment was conducted for 8 days. Scopolamine (1 mg/kg), a muscarinic receptor antagonist, was dissolved in normal saline (0.9% NaCl) and administered intraperitoneally 1 h after drugs administration on seventh day.
Sample preparation: The animals were killed by decapitation and the brain tissues were dissected out in ice-cold conditions and stored at −80° C. until use. Tissue was homogenized in 1.0 ml of 0.1M perchloric acid with a Potter-Elvehjem homogenizer. The homogenate was kept in the polypropylene tubes for 15 min after which 40 μl of 4M potassium acetate was added to adjust the pH to 4.0 followed by centrifugation for 15 min at 4000×g. Supernatant was used to estimate acetylcholine and AChE activities.
Samples were prepared as in Example 9C. The amount of acetylcholine in brain tissues was measured using Amplex red assay kit (Molecular Probes, Inc., USA). An acetylcholine standard curve was used in each experiment. Briefly, the reactions are initiated by adding 0.1 ml of control (10 μM H2O2) and tissue homogenates were taken in two separate polypropylene tubes and then 0.1 ml working solution of 400 μM Amplex Red reagent containing 2 U/mL HRP, 0.2 U/mL choline oxidase and 1 U/mL acetylcholinesterase were added to each tube. After incubation for 45 min, the fluorescence was recorded with the help of spectrofluorometer at 530 nm excitation and 590 nm emission wavelengths. The protein content was determined using standard protocol (Lowry, et al., 1951).
Statistical analyses: The results were expressed as means±Standard Error mean (SEM). The intergroup variation was measured by one-way ANOVA followed by Student-Newman-Keuls test. Two-way followed by Bonferroni test was employed to discover the intergroup variation in Y maze test considering groups and arms as two independent variables. Statistical analysis was done by using Graph Pad prism version 5 (San Diego, Calif.). A level of p<0.05 was accepted as statistically significant.

Structures are written as SMILES.

Consider `COc1cc2c(cc1OC)C(=O)C(CC1CCN(Cc3ccccc3)CC1)C2` (centres unmarked) [Donepezil, reference compound], for which the “Scopolamine-induced altered exploratory behavior (total arm entries)” value in assay [1] is “reversed this activity”. The “Scopolamine-induced decrease in ACh level in HIP tissue” value in assay [2] was “the same as 3-OH-DBP (B) (50 mg/kg) group”.
